Tested on: MIA PaCa-2 cells
Experiment: DNA microarray analysis (Affymetrix Human PrimeView)
Format: cell-based

## C=C(CC[C@@H](C(=O)O)[C@H]1[C@H](O)C[C@@]2(C)C3=C(CC[C@]12C)[C@@]1(C)CC[C@H](OC(C)=O)C(C)(C)[C@@H]1CC3)C(C)C [PA, Pachymic acid]
Probeset 11729120_x_at
  Fold-Change (MiaPaca-2 * PA vs. MiaPaca-2 * control), HSPA1B: 1.90
  Mean (MiaPaca-2 * PA), HSPA1B: 11.15
Probeset 11730923_x_at
  Fold-Change (MiaPaca-2 * PA vs. MiaPaca-2 * control), ADAMTS4: 2.20
  Mean (MiaPaca-2 * PA), ADAMTS4: 8.77
Probeset 11733797_a_at
  Fold-Change (MiaPaca-2 * PA vs. MiaPaca-2 * control), RCAN1: 1.68
  Mean (MiaPaca-2 * PA), RCAN1: 9.17
Probeset 11735148_a_at
  Fold-Change (MiaPaca-2 * PA vs. MiaPaca-2 * control), SOCS2: 1.78
  Mean (MiaPaca-2 * PA), SOCS2: 6.08
Probeset 11736304_a_at
  Fold-Change (MiaPaca-2 * PA vs. MiaPaca-2 * control), C17orf91: 1.70
  Mean (MiaPaca-2 * PA), C17orf91: 6.00
Probeset 11736305_x_at
  Fold-Change (MiaPaca-2 * PA vs. MiaPaca-2 * control), C17orf91: 1.71
  Mean (MiaPaca-2 * PA), C17orf91: 6.44
Probeset 11737922_a_at
  Fold-Change (MiaPaca-2 * PA vs. MiaPaca-2 * control), SERPINB8: 2.08
  Mean (MiaPaca-2 * PA), SERPINB8: 8.90
Probeset 11739443_a_at
  Fold-Change (MiaPaca-2 * PA vs. MiaPaca-2 * control), FLJ36031: 1.69
  Mean (MiaPaca-2 * PA), FLJ36031: 6.38
Probeset 11740393_at
  Fold-Change (MiaPaca-2 * PA vs. MiaPaca-2 * control), TNFRSF9: 2.27
  Mean (MiaPaca-2 * PA), TNFRSF9: 8.01
Probeset 11741911_a_at
  Fold-Change (MiaPaca-2 * PA vs. MiaPaca-2 * control), GBP3: 1.86
  Mean (MiaPaca-2 * PA), GBP3: 6.08
Probeset 11744127_at
  Fold-Change (MiaPaca-2 * PA vs. MiaPaca-2 * control), CXCL2: 2.45
  Mean (MiaPaca-2 * PA), CXCL2: 10.98
Probeset 11744128_x_at
  Fold-Change (MiaPaca-2 * PA vs. MiaPaca-2 * control), CXCL2: 2.30
  Mean (MiaPaca-2 * PA), CXCL2: 11.01
Probeset 11744413_x_at
  Fold-Change (MiaPaca-2 * PA vs. MiaPaca-2 * control), HSPA1A: 2.45
  Mean (MiaPaca-2 * PA), HSPA1A: 10.47
Probeset 11745209_a_at
  Fold-Change (MiaPaca-2 * PA vs. MiaPaca-2 * control), SAMD4A: 1.79
  Mean (MiaPaca-2 * PA), SAMD4A: 6.54
Probeset 11746856_a_at
  Fold-Change (MiaPaca-2 * PA vs. MiaPaca-2 * control), SERPINE1: 1.78
  Mean (MiaPaca-2 * PA), SERPINE1: 7.81
Probeset 11747820_x_at
  Fold-Change (MiaPaca-2 * PA vs. MiaPaca-2 * control), UPP1: 1.93
  Mean (MiaPaca-2 * PA), UPP1: 8.45
Probeset 11748180_a_at
  Fold-Change (MiaPaca-2 * PA vs. MiaPaca-2 * control), SERPINB8: 2.13
  Mean (MiaPaca-2 * PA), SERPINB8: 10.10
Probeset 11748775_a_at
  Fold-Change (MiaPaca-2 * PA vs. MiaPaca-2 * control), UPP1: 1.75
  Mean (MiaPaca-2 * PA), UPP1: 10.33
Probeset 11749291_a_at
  Fold-Change (MiaPaca-2 * PA vs. MiaPaca-2 * control), FOS: 1.74
  Mean (MiaPaca-2 * PA), FOS: 6.87
Probeset 11749773_x_at
  Fold-Change (MiaPaca-2 * PA vs. MiaPaca-2 * control), GBP1: 1.92
  Mean (MiaPaca-2 * PA), GBP1: 5.41
Probeset 11749905_a_at
  Fold-Change (MiaPaca-2 * PA vs. MiaPaca-2 * control), CYR61: 2.32
  Mean (MiaPaca-2 * PA), CYR61: 9.84
Probeset 11750411_x_at
  Fold-Change (MiaPaca-2 * PA vs. MiaPaca-2 * control), HSPA1A /// HSPA1B: 2.09
  Mean (MiaPaca-2 * PA), HSPA1A /// HSPA1B: 10.73
Probeset 11752442_a_at
  Fold-Change (MiaPaca-2 * PA vs. MiaPaca-2 * control), MIR17HG: 1.88
  Mean (MiaPaca-2 * PA), MIR17HG: 6.16
Probeset 11752931_x_at
  Fold-Change (MiaPaca-2 * PA vs. MiaPaca-2 * control), GBP1: 1.83
  Mean (MiaPaca-2 * PA), GBP1: 5.47
Probeset 11752940_a_at
  Fold-Change (MiaPaca-2 * PA vs. MiaPaca-2 * control), EGR1: 1.69
  Mean (MiaPaca-2 * PA), EGR1: 10.59
Probeset 11752993_a_at
  Fold-Change (MiaPaca-2 * PA vs. MiaPaca-2 * control), DUSP1: 1.78
  Mean (MiaPaca-2 * PA), DUSP1: 7.26
Probeset 11753073_a_at
  Fold-Change (MiaPaca-2 * PA vs. MiaPaca-2 * control), TNFSF4: 1.71
  Mean (MiaPaca-2 * PA), TNFSF4: 5.89
Probeset 11753435_x_at
  Fold-Change (MiaPaca-2 * PA vs. MiaPaca-2 * control), SLC3A2: 1.69
  Mean (MiaPaca-2 * PA), SLC3A2: 8.06
Probeset 11754026_a_at
  Fold-Change (MiaPaca-2 * PA vs. MiaPaca-2 * control), IL8: 2.84
  Mean (MiaPaca-2 * PA), IL8: 11.16
Probeset 11754114_a_at
  Fold-Change (MiaPaca-2 * PA vs. MiaPaca-2 * control), CXCL1: 2.46
  Mean (MiaPaca-2 * PA), CXCL1: 11.01
Probeset 11755981_a_at
  Fold-Change (MiaPaca-2 * PA vs. MiaPaca-2 * control), HBEGF: 1.90
  Mean (MiaPaca-2 * PA), HBEGF: 4.80
Probeset 11757367_s_at
  Fold-Change (MiaPaca-2 * PA vs. MiaPaca-2 * control), HSPA6 /// HSPA7: 19.93
  Mean (MiaPaca-2 * PA), HSPA6 /// HSPA7: 9.17
Probeset 11757513_at
  Fold-Change (MiaPaca-2 * PA vs. MiaPaca-2 * control), NFKBIZ: 2.08
  Mean (MiaPaca-2 * PA), NFKBIZ: 10.08
Probeset 11758347_s_at
  Fold-Change (MiaPaca-2 * PA vs. MiaPaca-2 * control), DDIT3: 1.70
  Mean (MiaPaca-2 * PA), DDIT3: 7.10
Probeset 11758429_s_at
  Fold-Change (MiaPaca-2 * PA vs. MiaPaca-2 * control), MIR17HG: 1.80
  Mean (MiaPaca-2 * PA), MIR17HG: 4.78
Probeset 11759254_at
  Fold-Change (MiaPaca-2 * PA vs. MiaPaca-2 * control), TNFSF18: 1.84
  Mean (MiaPaca-2 * PA), TNFSF18: 8.90
Probeset 11759550_at
  Fold-Change (MiaPaca-2 * PA vs. MiaPaca-2 * control), NCRNA00275: 1.82
  Mean (MiaPaca-2 * PA), NCRNA00275: 7.61
Probeset 11760200_a_at
  Fold-Change (MiaPaca-2 * PA vs. MiaPaca-2 * control), SAT1: 1.75
  Mean (MiaPaca-2 * PA), SAT1: 6.19
Probeset 11760295_at
  Fold-Change (MiaPaca-2 * PA vs. MiaPaca-2 * control), EBNA1BP2: 1.73
  Mean (MiaPaca-2 * PA), EBNA1BP2: 4.62
Probeset 11762010_a_at
  Fold-Change (MiaPaca-2 * PA vs. MiaPaca-2 * control), GRAMD1B: 1.80
  Mean (MiaPaca-2 * PA), GRAMD1B: 7.49
Probeset 11763186_at
  Fold-Change (MiaPaca-2 * PA vs. MiaPaca-2 * control), CASP1: 1.70
  Mean (MiaPaca-2 * PA), CASP1: 5.56
Probeset 11763226_x_at
  Fold-Change (MiaPaca-2 * PA vs. MiaPaca-2 * control), IL8: 2.95
  Mean (MiaPaca-2 * PA), IL8: 11.12
Probeset 11763250_x_at
  Fold-Change (MiaPaca-2 * PA vs. MiaPaca-2 * control), CXCL1 /// CXCL2: 2.26
  Mean (MiaPaca-2 * PA), CXCL1 /// CXCL2: 10.74
Probeset 11763323_x_at
  Fold-Change (MiaPaca-2 * PA vs. MiaPaca-2 * control), GRAMD1B: 1.71
  Mean (MiaPaca-2 * PA), GRAMD1B: 6.75

— PMC4411097, “Pachymic Acid Inhibits Growth and Induces Apoptosis of Pancreatic Cancer In Vitro and In Vivo by Targeting ER Stress” (PLoS ONE, 2015)
